Patent US20240376097A1, “BCL-2 Inhibitor” (BeiGene Ltd., priority 2020, published 2024)
Where two headings read alike, the source gives them in different places.

Assays:
[1] = system: RS4;11 (BCL-2 dependent acute lymphoblastic leukemia cell line); experiment: RS4;11 Cell Proliferation Assay; format: cell-based; details: read-out: Cellular proliferation assay (IC50, nM) RS4
Procedure: Biological Example: RS4;11 Cell Proliferation Assay
(§1) The BCL-2 dependent acute lymphoblastic leukemia (ALL) cell line, RS4;11, was used to study the cellular potency of BCL-2 inhibitors. The cells (ATCC, CRL-1873) were cultured in RPMI-1640 complete medium (RPMI-1640 medium, HEPES (Gibco, 22400-105) supplemented with 10% fetal bovine serum (FBS) (Gibco, 10099-1441), 100 unit/ml penicillin and 100 μg/ml streptomycin (Gibco, 15140122)) and maintained in a humidified chamber at 37° C. containing 5% CO2. Each compound was serially diluted with 1 μM as the maximum concentration. To test the apoptotic effect of the compounds, the cells were seeded at 50,000 in 180 μl per well in 96-well plates and treated with 10-point dilution series of each compound for 48 hrs at 37° C. Cell viability was assessed after the treatment using CellTiter-GLO luminescent assay (Promega) according to the manufacturer's recommendations. Briefly, 30 μl of CellTiter-GLO reagent was added into 200 μl of cell culture. Mixture was agitated on an orbital shaker for 5 min to ensure cell lysis followed by 7 min incubation at room temperature to allow development and stabilization of luminescent signals, which corresponded to the quantity of ATP and thus the quantity of metabolically active cells. Luminescent signals were measured using PHERAstar FS reader (BMG). Mean IC50 values were determined with GraphPad Prism software.

[2] = system: BCL-2 G101V knock-in cell line H96 (derive from RS4;11); experiment: Bcl 2-G101V Knock-In RS4;11 Cell Proliferation Assay; format: cell-based; details: RS4;11 Bcl-2 G101V knock-in clone H96, 48 hrs, CellTiter-GLO, read-out: Cellular proliferation assay (IC50, nM) RS4
Procedure: Biological Example: Bcl 2-G101V Knock-In RS4;11 Cell Proliferation Assay
(1) RS4;11 H96 Bcl 2-G101V Knock-In Cell Line Generation
Briefly, RS4;11 BCL2-G101V knock-in cell pool was generated using Crisper/Cas9 gene editing system and the BCL2-G101V knock-in single clone H96 was picked from the knock-in cell pool and validated by WES (whole exome-sequencing) and RNA-seq.
The BCL-2 dependent acute lymphoblastic leukemia (ALL) cell line, RS4;11(ATCC, CRL-1873), was cultured in RPMI-1640 complete medium (RPMI-1640 medium, HEPES (Gibco, 22400-105) supplemented with 10% fetal bovine serum (FBS) (Gibco, 10099-1441), 100 unit/ml penicillin and 100 μg/ml streptomycin (Gibco, 15140122)) and maintained in a humidified chamber at 37° C. containing 5% CO2.
To obtain BCL2-G101V knock-in cell pool, RS4;11 was co-transfected with the Cas9-gRNA which also expressed GFP label, and the Donor gene which contained the BCL2-G101V mutant sequence. After 48 hrs of electroporation, the GFP positive cells were collected through FACSAriaIII cell sorting system. Cell pool was recovered for 3 days and then cultured under 2 nM ABT-199 stress for 4 weeks. […] Then cells were plated in 96 well U-plate with 1 cell/well for 10000 wells for single clone selection. After 3-5 weeks growing, clones were successively screened by PCR sequencing. And three BCL2-G101V knock-in clones: H96, H142 and H233, have been picked out.
Three clones were validated by genome DNA and cDNA(mRNA) PCR sequencing, and BCL-2, BCL-xL and MCL-1 expression using Western Blot. The H96 clone was also validated by WES (whole exome-sequencing) and RNA-seq.
(2) Bcl 2-G101V Knock-In RS4;11 Cell Proliferation Assay
as §1, with “G101V knock-in” for “dependent acute lymphoblastic leukemia (ALL)”, “line H96 (derive from RS4;11) were” for “line, RS4;11, was”, “cells” for “cells (ATCC, CRL-1873)”, “μM or 10 μM” for “μM”, “90” for “180”, “100” for “200”

[3] = system: recombinant human Bcl-2-G101V protein; experiment: Bcl-2-G101V TR-FRET Assay; format: binding; details: ratio of biochemical IC50 Bcl-2 G101V / Bcl-2 WT
How it was run: (§2)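 Ex337/em490 & 520 nm TR-FRET; % inhibition of Bcl-2-G101V–ligand interaction from 490:520 ratio vs. increasing compound conc.; IC50 by 4-parameter logistic fit.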

[4] = biological target: recombinant human Bcl-2 D103Y protein (Homo sapiens (Human), UniProt P10415, D103Y); experiment: Bcl-2-D103Y Biochemical Assay (TR-FRET); format: binding
Procedure: Biological Example: Bcl-2-D103Y Biochemical Assay
[…]. The TR-FRET signals (ex337 nm, em490 nm/520 nm) were read on BMG PHERAstar FSX instrument. The inhibition percentage of Bcl-2 D103Y interaction with its ligand in presence of increasing concentrations of compounds was calculated based on the ratio of fluorescence at 490 nm to that at 520 nm. The IC50 for each compound was derived from fitting the data to the four-parameter logistic equation by Dotmatics.

[5] = biological target: Recombinant human Bcl-2 protein (Homo sapiens (Human), UniProt P10415); experiment: Bcl-2 TR-FRET Assay; format: binding
How it was run: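 In pH 7.5 phosphate buffer containing NaCl, EDTA, Tween-20 and BSA, 0.05 nM Bcl-2 saw serially diluted compound for 0.5 h before 0.5 nM FITC-Bak peptide was added. Signal ratio at 520/490 nm after 1 h yielded IC50.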

[6] = biological target: recombinant human Bcl-2-G101V protein (Homo sapiens (Human), UniProt P10415, G101V); experiment: Bcl-2-G101V TR-FRET Assay; format: binding; details: Bcl-2 G101V mutant, TR-FRET; read-out: Biochemical assay (IC50, nM) Bcl-2 G101V
How it was run: as §2

[7] = Homo sapiens, RS4-11, RS4;11 cells
[8] = Bcl-2 wild type, TR-FRET, read-out: Biochemical assay (IC50, nM) Bcl-2 WT

| Compound | IC50 [1, 7] [nM] | IC50 ([2]; Homo sapiens) [nM] | other results |
| --- | --- | --- | --- |
| COCCN1CCN(C2CC3(CCN(c4ccc(C(=O)NS(=O)(=O)c5ccc(NC[C@H]6CC[C@](C)(O)CC6)c([N+](=O)[O-])c5)c(Oc5cnc6[nH]ccc6c5)c4)CC3)C2)C(c2ccccc2C(C)C)C1 (stereo partly drawn) [Example 13, 2-((1H-pyrrolo[2,3-b]pyridin-5-yl)oxy)-N-((4-((((1r,4r)-4-hydroxy-4-methylcyclohexyl)methyl)amino)-3-nitrophenyl)sulfonyl)-4-(2-(2-(2-isopropylphenyl)-4-(2-methoxyethyl)piperazin-1-yl)-7-azaspiro[3.5]nonan-7-yl)benzamide] | 0.7 | 5.67 |  |
| COc1cc(CN2CCN(C3CC4(CCN(c5ccc(C(=O)NS(=O)(=O)c6ccc(NC[C@H]7CC[C@](C)(O)CC7)c([N+](=O)[O-])c6)c(Oc6cnc7[nH]ccc7c6)c5)CC4)C3)[C@H](c3ccccc3C(C)C)C2)ccc1Cl [Example 276, 2-((1H-pyrrolo[2,3-b]pyridin-5-yl)oxy)-4-(2-((R)-4-(4-chloro-3-methoxybenzyl)-2-(2-isopropylphenyl)piperazin-1-yl)-7-azaspiro[3.5]nonan-7-yl)-N-((4-((((1r,4r)-4-hydroxy-4-methylcyclohexyl)methyl)amino)-3-nitrophenyl)sulfonyl)benzamide] | 0.15 | 0.71 |  |
| 2-((1H-pyrrolo[2,3-b]pyridin-5-yl)oxy)-N-((4-((((1r,4r)-4-bydroxy-4-methylcyclohexyl)methyl)amino)-3-nitrophenyl)sulfonyl)-4-(2-((R or S)-2-(2-isopropylphenyl)-4-(2-methoxyethyl)piperazin-1-yl)-7-azaspiro[3.5]nonan-7-yl)benzamide [Example 13b] |  |  | Ratio of Bcl-2 G101V/WT [3]: 22.1; IC50 ([1]; RS4;11 cells): 0.32 nM; IC50 [2]: 2.81 nM; Ratio of Bcl-2 D103Y/Bcl-2 WT ([4]; ratio of IC50): 12 |
| COc1cc(CN2CCN(C3CC4(CCN(c5ccc(C(=O)NS(=O)(=O)c6ccc(NC[C@H]7CC[C@](C)(O)CC7)c([N+](=O)[O-])c6)c(Oc6cnc7[nH]cc(F)c7c6)c5)CC4)C3)[C@H](c3ccccc3C(C)C)C2)cc(C)c1OC [Example 210, 4-(2-((R)-4-(3,4-dimethoxy-5-methylbenzyl)-2-(2-isopropylphenyl)piperazin-1-yl)-7-azaspiro[3.5]nonan-7-yl)-2-((3-fluoro-1H-pyrrolo[2,3-b]pyridin-5-yl)oxy)-N-((4-((((1r,4r)-4-hydroxy-4-methylcyclohexyl)methyl)amino)-3-nitrophenyl)sulfonyl)benzamide] | 0.12 | 0.54 |  |
| CC(C)c1ccccc1C1CN(Cc2cnn(C)c2)CCN1C1CC2(CCN(c3ccc(C(=O)NS(=O)(=O)c4ccc(NC[C@H]5CC[C@](C)(O)CC5)c([N+](=O)[O-])c4)c(Oc4cnc5[nH]ccc5c4)c3)CC2)C1 (single isomer, unassigned) [Example 22a, 2-((1H-pyrrolo[2,3-b]pyridin-5-yl)oxy)-N-((4-((((1r,4r)-4-hydroxy-4-methylcyclohexyl)methyl)amino)-3-nitrophenyl)sulfonyl)-4-(2-((R or S)-2-(2-isopropylphenyl)-4-((1-methyl-1H-pyrazol-4-yl)methyl)piperazin-1-yl)-7-azaspiro [3.5]nonan-7-yl)benzamide] | 0.25 | 1.35 | IC50 [5, 8]: 0.0079 nM; IC50 ([5]; wild type Bcl-2, unit inferred, read-out: Bcl-2 WT): 0.0079 nM; IC50 [6]: 0.064 nM; IC50 ([4]; TR-FRET, FITC labeled Bak peptide): 0.041 nM |
| CC(C)c1ccccc1[C@@H]1CN(Cc2cccc3c2OCCO3)CCN1C1CC2(CCN(c3ccc(C(=O)NS(=O)(=O)c4ccc(NC[C@H]5CC[C@](C)(O)CC5)c([N+](=O)[O-])c4)c(Oc4cnc5[nH]ccc5c4)c3)CC2)C1 [Example 79b, 2-((1H-pyrrolo[2,3-b]pyridin-5-yl)oxy)-4-(2-(S-4-((2,3-dihydrobenzo [b][1,4]dioxin-5-yl)methyl)-2-(2-isopropylphenyl)piperazin-1-yl)-7-azaspiro[3.5]nonan-7-yl)-N-((4-((((1r,4r)-4-hydroxy-4-methylcyclohexyl)methyl)amino)-3-nitrophenyl)sulfonyl)benzamide] | 0.16 | 0.68 | IC50 [5, 8]: 0.33 nM; IC50 [6]: 19 nM |
| CC(C)c1ccccc1C1CN(CC(C)(C)C)CCN1C1CC2(CCN(c3ccc(C(=O)NS(=O)(=O)c4ccc(NC[C@H]5CC[C@](C)(O)CC5)c([N+](=O)[O-])c4)c(Oc4cnc5[nH]ccc5c4)c3)CC2)C1 (stereo partly drawn) [Example 12, 2-((1H-pyrrolo[2,3-b]pyridin-5-yl)oxy)-N-((4-((((1r,4r)-4-hydroxy-4-methylcyclohexyl)methyl)amino)-3-nitrophenyl)sulfonyl)-4-(2-(2-(2-isopropylphenyl)-4-neopentylpiperazin-1-yl)-7-azaspiro[3.5]nonan-7-yl)benzamide] | 3 | 40.5 |  |
| COc1cc(CN2CCN(C3CC4(CCN(c5ccc(C(=O)NS(=O)(=O)c6ccc(NC[C@H]7CC[C@](C)(O)CC7)c([N+](=O)[O-])c6)c(Oc6cnc7[nH]cc(F)c7c6)c5)CC4)C3)[C@H](c3ccccc3C(C)C)C2)ccc1Cl [Example 278, 4-(2-((R)-4-(4-chloro-3-methoxybenzyl)-2-(2-isopropylphenyl)piperazin-1-yl)-7-azaspiro[3.5]nonan-7-yl)-2-((3-fluoro-1H-pyrrolo[2,3-b]pyridin-5-yl)oxy)-N-((4-((((1r,4r)-4-hydroxy-4-methylcyclohexyl)methyl)amino)-3-nitrophenyl)sulfonyl) benzamide] | 0.15 | 0.46 |  |
